Experimental data reported in patent US20110251188A1, “ACENAPHTHO HETEROCYCLE COMPOUNDS, CYCLODEXTRIN INCLUSION COMPOUNDS AND COMPLEXES, AND USES IN THE MANUFACTURES OF BH3 PROTEIN ANALOGUE, BCL-2 FAMILY PROTEIN INHIBITORS THEREOF” (DALIAN UNIVERSITY OF TECHNOLOGY, priority 2008, published 2011).

Legend:
GST-Bcl-2 protein [1] = experiment: fluorescence polarization assay, competitive binding against FAM-Bid peptide; settings: GST-Bcl-2 40 nM, FAM-Bid 5 nM, 4 hours of incubation; read-out: competitive binding constant (Ki)
Procedure: (§1) A Bid BH3 peptide (amino acids: 79-99: […]) having 21 amino acids was synthesized and marked with 6-carboxyfluorescein N-succinimidyl ester (FAM) as fluorescent tag (FAM-Bid) at the N-terminal. The reaction system used in the competitive binding experiment was GST-Bcl-2 protein (40 nM) or Mcl-1 protein, which was dissolved in the reaction buffer (100 mM K3PO4, pH 7.5; 100 μg/ml bovine γ albumin; 0.02% sodium azide) together with FAM-Bid polypeptide (5 nM). In a 96-well plate, 100 μL of the reaction system was added into each well. Then 1 μL different concentration of 3-thiomorpholinyl-8-oxo-8H-acenaphtho[1,2-b]pyrrole-9-carbonitrile mother solution to be detected dissolved in DMSO was added thereinto until the final concentration met the experimental design requirements. Meanwhile, two control groups were established, one with the reaction system only contains Bcl-2 or Mcl-1 and FAM-Bid (equivalent to 0% inhibition rate), the other with the reaction system only containing FAM-Bid peptide. After 4 hours of incubation, the 96-well plate was detected by enzyme-labelled meter. The fluorescent polarization value (mP) was tested at […]. Ki value was deduced according to calculation formula. The competitive binding constant between the compound and Bcl-2 was 310 nM.

[2] = target: T1, interaction between Bcl-2 and Bax (Homo sapiens, UniProt P10415); experiment: intracellular fluorescence polarization energy transfer (FRET), Hela cells transfected with Bcl-2-CFP and Bax-YFP; type: cell-based; settings: for Time for which the compound interfered with the interaction between Bcl-2 and Bax: goes with the concentration of E11; for Concentration at which the compound interfered with the interaction between Bcl-2 and Bax: goes with the time of E12
T1 construct: expressed in transfected cells; host or cells: Hela cells
Procedure: 24 hours later (please refer to FIG. 2), the cells were washed with PBS for three times. The fluorescence value was detected by GENIOS fluorescence enzyme-labelled meter (TECAN, Swiss). In time-dependent experiment, the transfected cells were inoculated in a 6-well plate, after that, 40 μM of the compound was added thereinto. 3, 6 and 24 hours later (FIG. 3), the fluorescence intensities were detected by plate reader. As for the cell group in which only Bcl-2-CFP plasmid was transfected, the values at 475 nm emission wave length and 433 nm excitation wave length were recorded. As for the cell group in which only Bax-YFP plasmid was transfected, the values at 527 nm emission wave length and 505 nm excitation wave length were recorded. […] The ratio of fluorescence intensity at 527 nm and 475 nm emission wave lengths was FRET. The FRET for the control group in which the plasmid was solely transfected was set as 1.0. […] The cellular vitality was detected by MTT method.
Wherein the concentration and time meant that the detected compound interfered with the interaction between Bcl-2 and Bax at the concentration for the time period.

MCF-7 cells = experiment: cytotoxicity depending on BAX/BAK, MTT, MCF-7 cells with or without BAX/BAK interfering plasmid; type: cell-based; settings: MCF-7 cells, 48 hours, MTT
Procedure: 3 ng of BAX/BAK interfering plasmid was transfected into MCF-7 cells by using calcium phosphate coprecipitation method, 24 hours later, the cells were collected. The expressions after the BAX and BAK proteins interfered with RNA was detected by Western, and the cell groups without plasmid transfection were treated similarly and were set as the control group. The transfected cells were inoculated in a 96-well plate (1×10^5 cells/well), the control experiment of the cell group without plasmid transfection was carried out in parallel. The compound 3-thiomorpholinyl-8-oxo-8 H-acenaphtho[1,2-b]pyrrole-9-carbonitrile to be detected was added thereinto according to the concentration gradient designed before the experiment. 48 hours later, the cellular vitality was detected by MTT. The experimental results were shown in FIG. 6, Gossypol as nonspecific BH3 analogue was treated in parallel.

Mcl-1 [3] = experiment: Western blotting, inhibition (downregulation) of Mcl-1 in tumor cells, Example 23; type: cell-based; settings: for inhibition against Mcl-1: Western blotting, tumor cells
Procedure: (§2) The interest protein was detected by the corresponding antibody. The expression of the interest protein in the cells was detected by horseradish peroxidase-labeled secondary antibodies in combination with ECL coloration method. […] The concentration of the protein bands in the Western images were carried out semiquantitative analysis and normalization treatment with KODAK Gel Logic 1500 imaging system software.

Bcl-2 [4] = experiment: Western blotting, inhibition (downregulation) of Bcl-2 in tumor cells, Example 23; type: cell-based; settings: for inhibition against Bcl-2: Western blotting, tumor cells
Procedure: as §2

[5] = tested on: hepatoma carcinoma cells H22; experiment: in vivo tumor model, subcutaneous H22 tumor in Kunming mice; settings: for tumor inhibition rate: experimental group 2: peritoneal injection of DMSO solution, 0.3 mg/kg BW every other day, 10 days, tumor volume on the fortieth day
Procedure: The Kunming mice (in China) were randomly divided into groups, with 10 mice in each group. The cultivated hepatoma carcinoma cells H22 were inoculated subcutaneously in the oxter of the mice with 200 μL/mouse. After bearing the cancer cells for five days, the subcutaneous tumor was formed. Then the compound 3-thiomorpholinyl-8-oxo-8H-acenaphtho[1,2-b]pyrrole-9-carbonitrile and γ-cyclodextrin inclusion compound thereof were given by peritoneal injection, and the compound to be detected included by γ-cyclodextrin was given by oral administration. The detection conditions comprise:
Blank control group: the mice were not treated in any manner after the bearing cancer;
Control group (1): the mice were given a peritoneal injection of DMSO solution every other day after the bearing cancer, 10 days in total;
Control group (2): the mice were given a peritoneal injection of cyclodextrin solution every other day after the bearing cancer, 10 days in total;
Experimental group (1): the mice were given a peritoneal injection of DMSO solution equivalent to 0.03 mg/kg BW compound every other day after the bearing cancer, 10 days in total;
Experimental group (2): the mice were given a peritoneal injection of DMSO solution equivalent to 0.3 mg/kg BW compound every other day after the bearing cancer, 10 days in total;
Experimental group (3): the mice were given a peritoneal injection of inclusion compound water solution equivalent to 0.3 mg/kg BW compound every other day after the bearing cancer, 10 days in total;
Experimental group (4): the mice were given an intragastric administration of inclusion compounds water solution equivalent to 0.3 mg/kg BW compound every other day after the bearing cancer, 10 days in total;
During the experimental period, the length-diameter (a) and short diameter (b), which was perpendicular to the length-diameter, of the tumor were detected twice every week. The gross tumor volume was determined according to the formula: ½ab^2. The survival time of the animal was observed. The tumor inhibition rate was calculated by the tumor volume on the fortieth day.

GST-Bcl-2 protein [6] = target: T2, GST-Bcl-2 protein (Homo sapiens, UniProt P10415); experiment: fluorescence polarization assay, competitive binding against FAM-Bid peptide; settings: Table 3; FAM-Bid competition; table does not say whether Bcl-2 or Mcl-1; read-out: Binding constant
T2 construct: fused on or other part: GST tag on Bcl-2
Procedure: as §1

Bax protein = experiment: co-localization between Bax protein and chondriosome, Bax-YFP transfected MCF-7 cells; type: cell-based
Procedure: 5 ng of Bax-YFP plasmid was transfected into MCF-7 cells by using calcium phosphate coprecipitation method, 24 hours later, the cells were inoculated in a 6-well plate (0.2×10^6 cells/well), and 10 μM of the compound 3-thiomorpholinyl-8-oxo-8 H-acenaphtho[1,2-b]pyrrole-9-carbonitrile to be detected was added thereinto. 6 hours later, the cells were washed with PBS and hatched away from light with 50 nM Mito Tracker Red CMXRos (chondriosome specific probes; red) for 10 minutes. Then the cells were washed with PBS for three times, and the fluorescent image was scanned with Radiance2000 laser confocal microscopy (Bio-Rad, USA). Meanwhile, dual channel scanning was carried out, one channel was used to scan the green fluorescence of Bax-YFP, and the other channel was used to scan the red fluorescence of the CMXRos probe for indicating the chondriosome. […] When the Bax protein was localized on the chondriosome, the green and red fluorescence was superimposed into orange, as shown in FIG. 4.
Other 8 compounds were detected by the same experimental method as described above. […] Wherein the concentration and time meant that the detected compound simulated the BH3-only protein and driven the BAX to shift towards the chondriosome at the concentration for the time period.

[7] = phase solubility experiment (solubility in water before and after cyclodextrin inclusion or complexation); settings: Table 1, compound per se, before inclusion
Bcl-2 [8] = experiment: Western blotting, compounds compared with cyclodextrin inclusion compounds and complexes, Example 24; type: cell-based; settings: Table 9; 10 μM or equivalent of inclusion compound, 24 hours
Procedure: (§3) The cells were inoculated in a 6-well plate (2×10^5 cells/well). In the compound group, the compound 3-thiomorpholinyl-8-oxo-8H-acenaphtho[1,2-b]pyrrole-9-carbonitrile was dissolved into DMSO until the final concentration reached 10 μM. In the inclusion group, γ-cyclodextrin inclusion, which had been dissolved into water and was equivalent to 10 μM of the compound, was added thereinto. 24 hours later, the cells were washed with PBS for three times, then the cell sample was collected and cracked with 1×10^6/50 μl cell lysis solution (62.5 mM Tris-HCL pH 6.8; 2% SDS; 10% glycerol; 50 mM DTT; 0.01% bromphenol blue) at low temperature, then the solution was centrifuged and the protein supernatant was collected. The sample was boiled at 100° C. for 5 minutes and then was separated by electrophoresis on 12% SDS-PAGE and transferred. The interest protein was detected by the corresponding antibody. The expression of the interest protein in the cells was detected by horseradish peroxidase-labeled secondary antibodies in combination with ECL coloration method. […] The concentration of the protein bands in the Western figures were carried out semiquantitative analysis and normalization treatment with KODAK Gel Logic 1500 imaging system software.

Mcl-1 [9] = experiment: as above; type: cell-based; settings: Table 8; 10 μM or equivalent of inclusion compound, 24 hours
Procedure: as §3

T1 sequence (P10415 whole entry): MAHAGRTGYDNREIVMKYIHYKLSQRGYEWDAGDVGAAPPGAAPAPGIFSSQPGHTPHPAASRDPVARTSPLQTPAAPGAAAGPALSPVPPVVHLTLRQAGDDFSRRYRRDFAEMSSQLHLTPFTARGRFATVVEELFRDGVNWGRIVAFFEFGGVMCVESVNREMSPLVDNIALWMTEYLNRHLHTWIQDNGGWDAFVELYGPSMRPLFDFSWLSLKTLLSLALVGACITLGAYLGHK
T2 sequence (P10415 whole entry, the tested form may be a part): as the sequence (P10415 whole entry) above

Structure (SMILES)	Ki (GST-Bcl-2 protein [1]) [nM]	Time for which the compound interfered with the interaction between Bcl-2 and Bax [2] [h]	Concentration at which the compound interfered with the interaction between Bcl-2 and Bax [2] [µM]	dependence of cytotoxicity on BAX/BAK (MCF-7 cells)	inhibition against Mcl-1 (Mcl-1 [3])	inhibition against Bcl-2 (Bcl-2 [4])	average life (survival time) of the animal ([5]; compound group, control group 28±2.1 days) [days]	tumor inhibition rate [5]	Ki (GST-Bcl-2 protein [6]) [nM]	Time for which the compound drove the BAX to shift towards the chondriosome (Bax protein; goes with the concentration of E14) [h]	Concentration at which the compound drove the BAX to shift towards the chondriosome (Bax protein; goes with the time of E15) [µM]	downregulation of Mcl-1 protein, semiquantitative analysis (band concentration, control = 1) (Mcl-1 [3]; 6 hours)	downregulation of Mcl-1 protein, semiquantitative analysis (band concentration, control = 1) (Mcl-1 [3]; 12 hours)	downregulation of Mcl-1 protein, semiquantitative analysis (band concentration, control = 1) (Mcl-1 [3]; 18 hours)	downregulation of Mcl-1 protein, semiquantitative analysis (band concentration, control = 1) (Mcl-1 [3]; 24 hours)	downregulation of Bcl-2 protein, semiquantitative analysis (band concentration, control = 1) (Bcl-2 [4]; 2 hours)	downregulation of Bcl-2 protein, semiquantitative analysis (band concentration, control = 1) (Bcl-2 [4]; 6 hours)	Solubility of compounds [7] [µM]	downregulation of Bcl-2 protein, semiquantitative analysis (band concentration, control = 1) (Bcl-2 [8])	downregulation of Mcl-1 protein, semiquantitative analysis (band concentration, control = 1) (Mcl-1 [9])
N#CC1=C2C(=NC1=O)c1cccc3c(N4CCSCC4)ccc2c13 [3-thiomorpholinyl-8-oxo-8H-acenaphtho[1,2-b]pyrrole-9-carbonitrile]	310	3	2	cytotoxicity of absolute dependence on BAX/BAK	had the inhibition against these two proteins	had the inhibition against these two proteins	33 ± 3.1	22.3%												
N#CC1=C2C(=NC1=O)c1c(OCc3cccs3)ccc3cccc2c13 [6-(thienyl-2-methoxy)-8-oxo-8H-acenaphtho[1,2-b]pyrrole-9-carbonitrile]		6	10.0	absolute dependence on BAX/BAK	had the inhibition against Bcl-2 and Mcl-1 proteins	had the inhibition against Bcl-2 and Mcl-1 proteins			560	6	10.0	0.99	0.99	0.54	0.33	0.69	0.40	0.35		
N#CC1=C2C(=NC1=O)c1ccc(OC3CCOCC3)c3cccc2c13 [4-(tetrahydro-2H-pyranyl-4-oxo)-8-oxo-8H-acenaphtho[1,2-b]pyrrole-9-carbonitrile]					had the inhibition against Bcl-2 and Mcl-1 proteins	had the inhibition against Bcl-2 and Mcl-1 proteins		about 40%				0.99	0.99	0.61	0.29	0.71	0.38		0.77	0.80
